Consider nine compounds from ChEMBL document CHEMBL1123958, “Synthesis and antiviral properties of (E)-5-(2-bromovinyl)-2'-deoxycytidine-related compounds” (J Med Chem, 1988).

Structures are written as SMILES.

The test system of test [1] is Human alphaherpesvirus 2. Nature of the test: Concentration required to reduce HSV-2 virus induced cytopathogenicity in rabbit cell kidney culture (196 cells). Format: functional, organism-based.
Test [2] has as its system Human alphaherpesvirus 2. Nature of the test: Concentration required to reduce HSV-2 virus induced cytopathogenicity in rabbit cell kidney culture (G cells). Type of test: functional, organism-based. Background: Damage to the host cells serves as the signal in cytopathic effect assays.
Test [3] deals with Human alphaherpesvirus 2. Nature of the test: Concentration required to reduce HSV-2 virus induced cytopathogenicity in rabbit cell kidney culture (Lyons cells). Type of test: functional, organism-based.
Test [4] relates to Human alphaherpesvirus 1. Nature of the test: Concentration required to reduce HSV-1 virus induced cytopathogenicity in rabbit cell kidney culture (F cells). Format: functional, organism-based.
The test system of test [5] is Human alphaherpesvirus 1. The test can be described thus: Concentration required to reduce HSV-1 virus induced cytopathogenicity in rabbit cell kidney culture (KOS cells). Format: functional, organism-based.
Test [6] deals with Vesicular stomatitis virus. The test can be described thus: Concentration required to reduce vesicular stomatitis virus induced cytopathogenicity in rabbit cell kidney culture. Format: functional, organism-based.
Test [7] deals with Human alphaherpesvirus 1. Nature of the test: Concentration required to reduce HSV-1 virus induced cytopathogenicity in rabbit cell kidney culture (McIntyre cells). Type of test: functional, organism-based.
The species named for test [8] is Oryctolagus cuniculus. Nature of the test: Minimum cytotoxic concentration causing microscopically detectable alteration of normal cell morphology of rabbit kideny cells. Type of test: functional. On the set-up: unit not given here.
The species named for test [9] is Oryctolagus cuniculus. Nature of the test: Minimum cytotoxic concentration causing microscopically detectable alteration of normal cell morphology of rabbit kidney cells. Type of test: functional.

On to `CC(=O)OC[C@H]1O[C@@H](n2cc(/C=C/Br)c(-n3cncn3)nc2=O)C[C@@H]1OC(C)=O`, for which the Concentration in the test on Human alphaherpesvirus 2 [1] was 20 µg/mL; with Human alphaherpesvirus 2 [2], 20 µg/mL; in the test with Human alphaherpesvirus 2 [3], 20 µg/mL; in the test with Human alphaherpesvirus 1 [4] it was 0.2 µg/mL; in the test with Human alphaherpesvirus 1 [5] it was 0.1 µg/mL; in [6] it was above 200 µg/mL. In addition, the Concentration in the test with Human alphaherpesvirus 1 [7] turned out to be 0.07 µg/mL.
As for `Cc1cn([C@H]2C[C@H](O)[C@@H](CO)O2)c(=O)nc1-n1cncn1`, the Concentration in the test with Human alphaherpesvirus 2 [1] was 20 µg/mL; in the test on Human alphaherpesvirus 2 [2], 20 µg/mL; in the test on Human alphaherpesvirus 2 [3], 20 µg/mL; with Human alphaherpesvirus 1 [4], above 40 µg/mL; with Human alphaherpesvirus 1 [5] it was above 40 µg/mL; in test [6], above 40 µg/mL. In addition, in the test on Human alphaherpesvirus 1 [7], the Concentration came out at 20 µg/mL.
In the case of `CC(=O)OC[C@H]1O[C@@H](n2cc(/C=C/Br)c(=O)[nH]c2=O)C[C@@H]1OC(C)=O`, the Concentration was 100 µg/mL in the test on Human alphaherpesvirus 2 [1]; 20 µg/mL in the test with Human alphaherpesvirus 2 [2]; 40 µg/mL with Human alphaherpesvirus 2 [3]; 0.1 µg/mL in the test on Human alphaherpesvirus 1 [4]; 0.1 µg/mL in the test with Human alphaherpesvirus 1 [5]; above 300 µg/mL in test [6]. The Concentration in the test on Human alphaherpesvirus 1 [7] is 0.2 µg/mL. In addition, the MCC in the test filed under Oryctolagus cuniculus [8] is above 300.
For `Nc1nc(=O)n([C@H]2C[C@H](O)[C@@H](CO)O2)cc1/C=C/Br`, the Concentration was above 400 µg/mL in the test with Human alphaherpesvirus 2 [1]; 20 µg/mL in the test with Human alphaherpesvirus 2 [2]; above 400 µg/mL in the test with Human alphaherpesvirus 2 [3]; 0.2 µg/mL in the test on Human alphaherpesvirus 1 [4]; 0.1 µg/mL in the test with Human alphaherpesvirus 1 [5]; above 400 µg/mL in test [6]. For the same compound, the Concentration in the test with Human alphaherpesvirus 1 [7] came to 0.2 µg/mL. Also, the MCC in the test listed under Oryctolagus cuniculus [8] is above 400.
Turning to `Cc1cn(C2CC(O)C(CCl)O2)c(=O)nc1-n1cncn1` (stereo not drawn), the Concentration (with Human alphaherpesvirus 2 [1]; in the test with Human alphaherpesvirus 2 [2]; in the test with Human alphaherpesvirus 2 [3]; with Human alphaherpesvirus 1 [4]; with Human alphaherpesvirus 1 [5]; in test [6]) was above 10 µg/mL each time. This compound also yielded a Concentration in the test with Human alphaherpesvirus 1 [7] above 10 µg/mL. The compound also displayed an MCC in the test listed under Oryctolagus cuniculus [8] above 10.
Consider `CC(=O)OC[C@H]1O[C@@H](n2cc(C)c(-n3cncn3)nc2=O)C[C@@H]1OC(C)=O`, for which the Concentration (with Human alphaherpesvirus 2 [1]; in the test on Human alphaherpesvirus 2 [2]; in the test on Human alphaherpesvirus 2 [3]; in the test on Human alphaherpesvirus 1 [4]; in the test on Human alphaherpesvirus 1 [5]; in test [6]) was above 40 µg/mL in each case. The Concentration in the test on Human alphaherpesvirus 1 [7] is above 40 µg/mL.
Take `O=c1[nH]c(=O)n([C@H]2C[C@H](O)[C@@H](CO)O2)cc1/C=C/Br` [BRIVUDINE]: the Concentration in the test on Human alphaherpesvirus 2 [1] was 30 µg/mL; in the test with Human alphaherpesvirus 2 [2], 2 µg/mL; with Human alphaherpesvirus 2 [3], 7 µg/mL; with Human alphaherpesvirus 1 [4], 0.02 µg/mL; in the test with Human alphaherpesvirus 1 [5], 0.02 µg/mL; in [6], above 400 µg/mL. The Concentration with Human alphaherpesvirus 1 [7] was found to be 0.02 µg/mL. The compound further had an MCC in the test listed under Oryctolagus cuniculus [9] above 400.
Consider `O=c1nc(-n2cncn2)c(/C=C/Br)cn1C1CC(O)C(CCl)O1` (stereo not drawn), for which the Concentration was above 100 µg/mL with Human alphaherpesvirus 2 [1]; above 100 µg/mL in the test with Human alphaherpesvirus 2 [2]; above 100 µg/mL in the test on Human alphaherpesvirus 2 [3]; above 100 µg/mL with Human alphaherpesvirus 1 [4]; 70 µg/mL with Human alphaherpesvirus 1 [5]; above 100 µg/mL in [6]. This compound also registered a Concentration with Human alphaherpesvirus 1 [7] above 100 µg/mL. Moreover, the MCC in the test filed under Oryctolagus cuniculus [8] is recorded as above 100.
On to `O=c1nc(-n2cncn2)c(/C=C/Br)cn1[C@H]1C[C@H](O)[C@@H](CO)O1`, for which the Concentration with Human alphaherpesvirus 2 [1] is above 200 µg/mL; with Human alphaherpesvirus 2 [2], 20 µg/mL; in the test with Human alphaherpesvirus 2 [3], 70 µg/mL; in the test on Human alphaherpesvirus 1 [4] it was 0.07 µg/mL; in the test on Human alphaherpesvirus 1 [5], 0.07 µg/mL; in [6] it was above 200 µg/mL. In the test on Human alphaherpesvirus 1 [7], this compound returned a Concentration of 0.1 µg/mL.
